In general, Kd refers to a measure of binding affinity in units of concentration.

For assay [1], the target named is T1, FABP5 (Homo sapiens, UniProt Q01469).
T1 construct: made in house
The assay can be described thus: High throughput fluorescence displacement assay with NBD-stearate. In kind it is binding. Particulars: stated in words only. The procedure:
FABP5 (30 μg), NBD-stearate (1 μM), and a competitor test compound were incubated in 30 mM Tris-HCl, 100 mM NaCl buffer (pH 7.6). […] The initial assay was run with buffer (30 mM Tris-HCl buffer), negative controls (buffer and NBD-stearate), positive controls (buffer, NBD-stearate, FABP5), and experimental wells with a variable test compound added (arachidonic acid or one of the 48 test compounds) at 10 μM. […] The Kd of NBD-stearate for FABP5 had been determined previously through incubating FABP5 with increasing concentrations of NBD-stearate.

For assay [2], the system named is male C57Bl6 mice. The assay can be described thus: Formalin test. In kind it is in vivo. The procedure:
(§1) We used male C57Bl6 mice (22-30 g, Taconic Farms) for all experiments. The animals were group housed at room temperature and kept on a 12:12 hour light:dark cycle with ad libitum access to water and food. The animals were habituated to the experimental room for one week before testing. All experiments were approved by the Stony Brook University Institutional Animal Care and Use Committee. The experimenter was blinded to the treatment conditions of each animal.
Mice were habituated to the observation chamber (Plexiglas box, 25 cm×25 cm×25 cm) for 30 min prior to formalin injection. The mice subsequently received an injection of formalin (2.5% in saline, 20 μl) into the plantar surface of the right hind paw using a 27 gauge needle. The animals were immediately placed back into the observation, chamber and nocifensive behavior (time spent licking or biting the paw) was recorded for 60 min. The formalin test consists of two phases with the first phase (0-5 min) reflecting nociceptor activation and the second phase (15-45 min) reflecting an inflammatory pain response.
(§2) Behavioral data are presented as means±S.E.M. for the vehicle and inhibitor-treated groups, each consisting of at least 6 animals. Statistical significance between vehicle and inhibitor groups was determined using unpaired t-tests or one-way ANOVA followed by Dunnett's post hoc analysis. In all cases, differences of p<0.05 were considered significant.

Assay [3] deals with male C57Bl6 mice. The assay can be described thus: Carrageenan-induced paw edema and thermal hyperalgesia. In kind it is in vivo. To be noted: 20 mg/kg, i.p. (FIG. 16A). The protocol:
as §1
Paw edema was induced by injecting 1% λ-carrageenan (20 μl, in sterile saline) into the plantar surface of the left hind paw and a control solution of saline into the right hind paw using a 27 gauge needle. Paw diameters were measured before carrageenan injection and 4 hours after injection using digital electronic calipers (Fisher) and expressed to the nearest ±0.01 mm. […] The cannabinoid receptor antagonists, rimonabant and SR144528 (3 mg/kg, i.p.), in ethanol:emulphor:saline (1:1:18), were injected 15 min before the FABP inhibitor. Edema is reported as the change in paw diameter at 4 hr over the baseline. Changes in paw diameter of saline-injected contralateral paws were negligible. Thermal hyperalgesia measured the latency to withdraw the paw from a focused beam of radiant heat applied to the plantar surface of the hind paw using a Hargreaves plantar apparatus (Ugo Basile) set at an intensity of 3.0. For each mouse, the average latencies consisted of three trials spaced at least 5 minutes apart. The mice were habituated to the test chamber for 30 min. The cutoff time was set at 30 sec.
as §2
A general note: Carrageenan injected into the paw causes an acute inflammation.

The conditions of assay [4]: literature; cited from earlier work.
The target of the next assay is FABP4 (Homo sapiens, UniProt P15090). Particulars: McDonnell 2006; read-out: Ki against FABP4 (1,8-ANS displacement); cited from earlier work.
For assay [5], the target named is T1, FABP5. Particulars: cited from earlier work.
In the next assay the target is FABP7 (Homo sapiens, UniProt O15540). Particulars: natural substrate; read-out: Ki against FABP7; cited from earlier work.
Assay [6] deals with male C57Bl6 mice. Particulars: literature SAR study (Chi 2005); cited from earlier work.

T1 sequence (Q01469 whole entry, species assumed): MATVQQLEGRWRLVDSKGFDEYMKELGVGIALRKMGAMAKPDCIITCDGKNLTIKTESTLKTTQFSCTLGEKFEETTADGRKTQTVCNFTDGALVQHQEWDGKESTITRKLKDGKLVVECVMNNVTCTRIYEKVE
FABP4, sequence (P15090 whole entry, species assumed): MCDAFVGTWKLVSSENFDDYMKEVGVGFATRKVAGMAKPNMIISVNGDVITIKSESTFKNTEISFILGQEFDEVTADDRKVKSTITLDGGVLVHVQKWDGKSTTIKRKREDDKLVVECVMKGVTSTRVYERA
FABP7, sequence (O15540 whole entry, species assumed): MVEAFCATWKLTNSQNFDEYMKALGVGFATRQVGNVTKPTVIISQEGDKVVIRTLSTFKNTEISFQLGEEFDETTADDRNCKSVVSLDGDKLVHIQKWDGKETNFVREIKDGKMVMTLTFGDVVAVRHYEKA

For `O=C(O)[C@H]1[C@H](c2ccccc2)[C@H](C(=O)Nc2cccc3ccccc23)[C@H]1c1ccccc1` (stereo in doubt) [Compound 53, 3-(naphthalen-1-ylcarbamoyl)-2,4-diphenylcyclobutanecarboxylic Acid], the FABP inhibition activity entry at FABP5 [1] is on record as “analogous FABP inhibition activity to Compound 26”.
`O=C(O)[C@H]1[C@H](c2ccccc2)[C@H](C(=O)Oc2ccc3ccccc3c2)[C@H]1c1ccccc1` (stereo in doubt) [Compound 54, 3-((naphthalen-2-yloxy)carbonyl)-2,4-diphenylcyclobutanecarboxylic Acid]: in the assay with male C57Bl6 mice [2] (FIG. 16B), the “first phase of formalin-induced nociception” value is listed as “reduce” and the “second phase of formalin-induced nociception” value is “reduce”. For the same compound, in the assay on male C57Bl6 mice [3], the “carrageenan-induced paw edema, 24 hrs after inhibitor administration” value is “reduced” and the “carrageenan-induced thermal hyperalgesia, 24 hrs after inhibitor administration” value was “reduced”. Besides, the FABP inhibition activity result at FABP5 [1] is “analogous FABP inhibition activity to Compound 26”.
With `COc1cc([C@H]2[C@H](C(=O)O[C@@H]3C[C@@H]4[C@@H](CN(C)C[C@@H]4C)[C@@H]3C)[C@H](c3ccc(O)c(OC)c3)[C@H]2C(=O)O[C@@H]2C[C@@H]3[C@@H](CN(C)C[C@@H]3C)[C@@H]2C)ccc1O` [(−)-incarvillateine], the antinociceptive properties result in assay [4] is “antinociceptive properties on the same level as morphine”.
With `O=C(O)[C@@H](O)c1cccc(OCc2ccccc2Cl)c1OCc1ccccc1Cl` [BMS480404], the Ki on FABP4 was 2.5 nM.
For the compound `O=C(O)C1C(c2ccccc2)C(C(=O)Oc2cccc3ccccc23)C1c1ccccc1` (stereo not shown) [Compound 49, γ-2,4-diphenyl-cyclobutane-1,3-dicarboxylic Acid mono-(1-napthyl) Ester], in the assay on male C57Bl6 mice [2] (mouse, in vivo), the “results in formalin induced mice models” value is given as “excellent results”.
For `CCCCCCC(CCCCCCCCCCC(=O)O)N(C)c1ccc([N+](=O)[O-])c2nonc12` (stereo not shown) [NBD-stearate, 12-N-methyl-(7-nitrobenz-2-oxa-1,3-diazo) aminostearic acid], the Kd at FABP5 [5] (one site binding analysis, determined previously (Kaczocha 2012), read-out: Kd of NBD-stearate for FABP5) is 160 nM.
With `CCCCC/C=C\C/C=C\C/C=C\C/C=C\CCCC(=O)O` [arachidonic acid], on FABP5 [5] (published value, read-out: Ki against FABP5, published / previously determined), the Ki was 130 nM.
As for `CCCCCCCC/C=C\CCCCCCCC(=O)O` [oleic acid], the Ki on FABP7 is 350 nM.
Regarding `O=C(O)C1C(c2ccccc2)C(C(=O)O)C1c1ccccc1` (stereo not drawn) [α-truxillic acid, α-2,4-diphenyl-cyclobutane-1,3-dicarboxylic Acid], the “antinociception in early and late stage pain, formalin induced mouse models” value with male C57Bl6 mice [6] was “best antinociceptive agent in both early and late stage pain”.
